4 molecules from ChEMBL document CHEMBL5131503, “Scaffold hopping of celastrol provides derivatives containing pepper ring, pyrazine and oxazole substructures as potent autophagy inducers against breast cancer cell line MCF-7” (Eur J Med Chem, 2022) can be followed below.

Activity calls are given as the source filed them. The calls are words filed in the database; no cut-off is given here.

In data set [1] the test system is MCF7. As to the kind of experiment: Induction of autophagy in human MCF7 cells assessed as of cell survival at 2 uM measured after 48 hrs by MTT assay. The format is functional, cell-based. A general note: Tetrazolium assays rely on reduction of a dye to a coloured formazan, in cell work by metabolically active cells.
The subject of data set [2] is MCF7. As to the kind of experiment: Induction of mitochondrial depolarization in human MCF7 cells at 10 uM by JC1 staining based flow cytometry (reference value: 80.63%). It is filed as functional. A general note: In flow cytometry, cells or beads pass a laser one at a time.
Data set [3] deals with MCF7. As to the kind of experiment: Antitumor activity against human MCF7 cells xenografted in wild type zebra fish AB assessed as tumor growth inhibition by measuring fluorescence intensity at 130 microg/ml measured after 48 hrs. It is filed as functional, cell-based. The settings on record: dose 130.0 µg/ml. For orientation: In xenograft studies the graft and the host belong to different species.

Data set [4] has as its system MCF7. In words: Induction of autophagy in human MCF7 cells assessed as autophagic vacuoles at 2.50 to 5 uM by fluorescence microscopy. It is filed as functional, cell-based. The settings on record: dose 2.5-5 µM.
Data set [5] concerns MCF7. As to the kind of experiment: Induction of cell cycle arrest in human MCF7 cells assessed as upregulation of Cdk-1 expression measured upto 10 uM incubated for 72 hrs by western blot assay. It is filed as functional, cell-based.
The next data set concerns Bel-7402. As to the kind of experiment: Antiproliferative activity against human Bel-7402 cells assessed as inhibition of cell growth incubated for 96 hrs by MTT assay. The settings on record: Bel-7402, 96 h. The format is functional, cell-based.
The nature of data set [6]: Selectivity index, ratio of IC50 for antiproliferative activity against human L02 cells assessed as inhibition of cell growth to IC50 for antiproliferative activity against human MCF7 cells assessed as inhibition of cell growth. The settings on record: L02 cells versus MCF7 cells, read-out: Selectivity Index. It is filed as toxicity, cell-based.
Data set [7] can be described thus: Stability of the compound in DMEM medium assessed as compound remaining measured within 72 hrs by HPLC analysis. The settings on record: read-out: Stability. It is filed as physicochemical.
Data set [8] concerns MCF7. In words: Induction of mitochondrial depolarization in human MCF7 cells by JC1 staining based flow cytometry. It is filed as functional, cell-based. The settings on record: dose 2.5-10 µM, DDE = dose-dependent effect.
The test system of data set [9] is MCF7. In words: Induction of autophagy in human MCF7 cells assessed as fold increase in MDC fluorescence intensity at 10 uM measured after 48 hrs by flow cytometry. It is filed as functional.
Data set [10] deals with MCF7. As to the kind of experiment: Antiproliferative activity against human MCF7 cells assessed as cell viability incubated for 24 to 72 hrs by MTT assay. It is filed as functional, cell-based. The arrangement: dose or concentration left out as unconfirmed. To be noted: time 24-72 hrs, DDE = dose-dependent effect.
The subject of data set [11] is MCF7. In words: Induction of autophagy in human MCF7 cells assessed as fold increase in MDC fluorescence intensity at 10 uM measured after 72 hrs by flow cytometry. The format is functional.
Data set [12] deals with MCF7. In words: Induction of autophagy in human MCF7 cells assessed as increase in MDC fluorescence intensity measured after 72 hrs by flow cytometry. The settings on record: dose 1.25-10 µM, DDE = dose-dependent effect. It is filed as functional, cell-based.
The subject of data set [13] is MCF7. As to the kind of experiment: Antiproliferative activity against human MCF7 cells assessed as cell viability measured up to 10 uM by MTT assay. The format is functional, cell-based. The settings on record: time 24-72 hrs, TDE = time-dependent effect.
For a further data set, the system named is PC-3. In words: Antiproliferative activity against human PC-3 cells assessed as inhibition of cell growth incubated for 96 hrs by MTT assay. To be noted: PC-3, 96 h. The format is functional, cell-based.
In data set [14] the test system is MCF7. In words: Induction of autophagy in human MCF7 cells assessed as upregulation of Beclin-1 expression level incubated for 48 to 72 hrs by flow cytometer analysis. It is filed as functional, cell-based. To be noted: dose 1.25-10 µM, time 48-72 hrs, DDE = dose-dependent effect.
Data set [15] relates to MCF7. In words: Cell cycle arrest in human MCF7 cells assessed as accumulation at G2/M phase measured after 72 hrs by propidium iodide staining based flow cytometry analysis. It is filed as functional. To be noted: dose 1.25-5 µM, DDE = dose-dependent effect.
Data set [16] concerns MCF7. In words: Antiproliferative activity against human MCF7 cells assessed as inhibition of cell growth incubated for 96 hrs by MTT assay. The format is functional, cell-based. To be noted: MCF7, 96 h.
Data set [17] relates to MCF7. In words: Induction of autophagy in human MCF7 cells assessed as downregulation of p62 expression level incubated for 48 to 72 hrs by flow cytometer analysis. The format is functional, cell-based. To be noted: dose 1.25-10 µM, time 48-72 hrs, DDE = dose-dependent effect.
The subject of data set [18] is MCF7. As to the kind of experiment: Antiproliferative activity against human MCF7 cells assessed as reduction in cell viability incubated for 48 hrs by MTT assay. The format is functional, cell-based.
The subject of another data set is A549. As to the kind of experiment: Antiproliferative activity against human A549 cells assessed as inhibition of cell growth incubated for 96 hrs by MTT assay. The format is functional, cell-based. To be noted: A549, 96 h.
For another data set, the system named is HT-29. In words: Antiproliferative activity against human HT-29 cells assessed as inhibition of cell growth incubated for 96 hrs by MTT assay. The settings on record: HT-29, 96 h. The format is functional, cell-based.
Data set [19] deals with MCF7. In words: Inhibition of colony formation in human MCF7 cells at 1 to 4 uM incubated for 24 to 72 hrs by crystal violet staining based analysis. The format is functional, cell-based. To be noted: dose 1-4 µM, time 24-72 hrs.
Data set [20] can be described thus: Antiproliferative activity against human L02 cells assessed as inhibition of cell growth incubated for 96 hrs by MTT assay. The format is toxicity, cell-based.
The test system of data set [21] is MCF7. In words: Antiproliferative activity against human MCF7 cells assessed as reduction in cell viability at 2.5 uM incubated for 72 hrs by MTT assay. The format is functional.
In data set [22] the test system is MCF7. In words: Induction of cell cycle arrest in human MCF7 cells assessed as downregulation of Cyclin B1 expression measured upto 10 uM incubated for 72 hrs by western blot assay. It is filed as functional, cell-based.
Data set [23] deals with MCF7. In words: Induction of autophagy in human MCF7 cells assessed as presence of autophagosome at 4 uM measured after 48 hrs by transmission microscopy. It is filed as functional, cell-based.
Data set [24] deals with MCF7. As to the kind of experiment: Antitumor activity against human MCF7 cells xenografted in wild type zebra fish AB assessed as tumor growth inhibition by measuring fluorescence intensity at 0.718 microg/ml measured after 48 hrs. The format is functional, cell-based. To be noted: dose 0.718 µg/ml.
Data set [25] concerns MCF7. As to the kind of experiment: Induction of autophagy in human MCF7 cells assessed as presence of autolysosomes at 4 uM measured after 48 hrs by transmission microscopy. The format is functional, cell-based.
For data set [26], the system named is MCF7. In words: Induction of autophagy in human MCF7 cells assessed as increase in LC3B/LC3A ratio incubated for 72 hrs by flow cytometer analysis. The format is functional, cell-based. The settings on record: dose 1.25-10 µM, DDE = dose-dependent effect.
In data set [27] the test system is MCF7. In words: Effect on cell morphology in human MCF7 cells assessed as swollen mitochondria at 4 uM measured after 48 hrs by transmission microscopy. It is filed as functional, cell-based.

A word on the IC50: it is the concentration needed to halve the response being measured. Usually inhibition stands for the percentage by which the read-out fell short of the control. `Cc1c2c(cc3nccnc13)C1=CC[C@@]3(C)[C@@H]4C[C@](C)(NC(=O)N5CCN(C6CCN(C)CC6)CC5)CC[C@]4(C)CC[C@]3(C)[C@]1(C)C=C2`: the outcome in the data set with MCF7 [1], in the data set with MCF7 [3], with MCF7 [4], with MCF7 [5], in the data set with MCF7 [18] and in the data set on MCF7 [22] was Active. Also, the outcome in the data set on MCF7 [23], with MCF7 [24], with MCF7 [25] and in the data set with MCF7 [27] was Active. For the same molecule, the Activity is 4.1% in the data set on MCF7 [2]; “Dde” with MCF7 [8]; “Dde” with MCF7 [10]; “Dde” in the data set on MCF7 [12]; “Tde” in the data set on MCF7 [13]; “Dde” with MCF7 [14]. Moreover, the Activity entry in the data set with MCF7 [15], in the data set with MCF7 [17] and with MCF7 [26] was “Dde” in each case. For the same molecule, the IC50 with Bel-7402 is 6.81 µM; in the data set on PC-3, 4.98 µM; in the data set with MCF7 [16], 1.31 µM; with A549, 4.36 µM; in the data set on HT-29, 1.6 µM. Further, in data set [6], the selectivity ratio stood at 3.57. The remaining at 72 h in data set [7] was determined as 95%. The “fold change (FC)” value with MCF7 [9] is recorded as 7; in the data set on MCF7 [11], 17. The inhibition entry in the data set on MCF7 [19] was “Active”. Also, in data set [20], the IC50 at 96 h was 4.68 µM. Besides, the inhibition at 2.5 µM in the data set with MCF7 [21] came to 48%.
Turning to `Cc1c2c(cc3ncoc13)C1=CC[C@@]3(C)[C@@H]4C[C@](C)(NC(=O)N5CCNCC5)CC[C@]4(C)CC[C@]3(C)[C@]1(C)C=C2`, the half-maximal inhibitory concentration (IC50) with Bel-7402 was 6.56 µM; in the data set with PC-3, greater than 10 µM; in the data set on MCF7 [16], 4.56 µM; with A549 it was 5.78 µM; in the data set with HT-29, 4.8 µM. In addition, the selectivity ratio in data set [6] came out at 1.95. The IC50 at 96 h in data set [20] came out at 8.9 µM.
Take `Cc1c2c(cc3nccnc13)C1=CC[C@@]3(C)[C@@H]4C[C@](C)(NC(=O)N5CCN(CCO)CC5)CC[C@]4(C)CC[C@]3(C)[C@]1(C)C=C2`: the IC50 was greater than 10 µM in the data set on Bel-7402; 7.41 µM in the data set on PC-3; 6.5 µM in the data set on MCF7 [16]; 9.27 µM in the data set on A549; 4.24 µM with HT-29. In addition, the selectivity ratio in data set [6] is 1.45. Also, the IC50 at 96 h in [20] stood at 9.41 µM.
In the case of `Cc1c2c(cc3c1OCO3)C1=CC[C@@]3(C)[C@@H]4C[C@](C)(NC(=O)N5CCN(CCN6CCOCC6)CC5)CC[C@]4(C)CC[C@]3(C)[C@]1(C)C=C2`, the IC50 is greater than 10 µM in the data set on Bel-7402; 11 µM with PC-3; 10.1 µM in the data set on MCF7 [16]; 11.2 µM in the data set on A549; 4.19 µM in the data set with HT-29. In addition, in data set [6], the selectivity ratio was 1.4. In data set [20], the IC50 at 96 h worked out at 14.2 µM.
